Data on 23 compounds can be found in the RepoRT retention time repository (doi:10.1021/acs.analchem.1c00972).

Series [1] can be described thus: RP, Waters ACQUITY UPLC BEH C18, 100 × 1 mm, 1.7 µm, 50 °C, 0.3 mL/min, estimated dead time 0.17 min; A: water + 10 mM ammonium bicarbonate; B: 10% water + 90% methanol + 10 mM ammonium bicarbonate; gradient (min/%B) 0/0 15/100 21/100 22/0 30/0. The settings on record: stereoisomer not certain.
The nature of series [2]: RP, Waters ACQUITY UPLC BEH C18, 100 × 1 mm, 1.7 µm, 50 °C, 0.3 mL/min, estimated dead time 0.17 min; A: water + 0.1% formic acid + 20 mM ammonium formate; B: methanol + 0.1% formic acid + 20 mM ammonium formate; gradient (min/%B) 0/0 15/100 21/100 22/0 30/0. The settings on record: stereoisomer not certain.

`Cn1cc[nH]c1=S` [Methimazol]: the LC retention time in series [1] is 2.82 min; in series [2], 2.75 min.
Take `O=C1Cc2cc(CCN3CCN(c4nsc5ccccc45)CC3)c(Cl)cc2N1` [Ziprasidone]: the LC retention time in series [1] is 16.1 min; in series [2], 11.3 min.
As for `CC1=C2C3OC(=O)C(C)C3CCC2(C)C=CC1=O` (stereo not drawn) [alpha-Santonin], the figures for the LC retention time in series [1] and in series [2] were 11.5 min and 11.3 min, respectively.
Taken in the same sequence, the figures for `CCc1cccc(C)c1N` [6-Ethyl-2-toluidine] were 12.7 min and 10.8 min.
For the compound `c1ccc2nc3ccccc3cc2c1` [Acridin], the LC retention time in series [1] is 14.6 min; in series [2] it was 8.84 min.
Turning to `CCCNC(C)C(=O)Nc1ccccc1C` (stereo unspecified) [Prilocaine], the LC retention time in series [1] was 13.8 min; in series [2], 8.85 min.
For the compound `CN1CCC23c4c5ccc(O)c4OC2C(O)C=CC3C1C5` (stereo unspecified) [Morphine], the values for the LC retention time in series [1] and in series [2] were 10.4 min and 4.19 min, respectively.
For the compound `C=C1CC(=CC)C(=O)OC2CC[N+]3([O-])CC=C(COC(=O)C1(C)O)C23` (stereo unspecified) [Seneciphylline N-oxide], the values for the LC retention time in series [1] and in series [2] were 8.91 min and 8.11 min, respectively.
As to `CNC(=O)C(C)SCCSP(=O)(OC)OC` (stereo unspecified) [Vamidothion (Vamidoate)], the LC retention time in series [1] was 9.45 min; in series [2] it was 9.33 min.
Taken in the same sequence, the figures for `CNc1nc(NC(C)C)nc(SC)n1` [Desmetryn] were 13.1 min and 11.7 min.
As for `CC(C)N(C(=O)SCC(Cl)=C(Cl)Cl)C(C)C` [Triallate], the LC retention time in series [1] is 17.7 min; in series [2], 17.3 min.
Taken in the same sequence, the figures for `CCOP(=S)(OCC)Oc1ccc(=O)n(-c2ccccc2)n1` [Pyridaphenthion] were 14.8 min and 14.6 min.
For the compound `COc1ccc2c(c1)[nH]c1c(C)nccc12` [Harmine], the figures for the LC retention time in series [1] and in series [2] were 13.5 min and 9.88 min, respectively.
For `CNC(=O)Oc1cccc2c1OC(C)(C)C2O` (stereo unspecified) [3-Hydroxycarbofuran], the LC retention time in series [1] is 9.47 min; in series [2], 9.35 min.
As to `NC(=NCCCCCCN=C(N)N=C(N)Nc1ccc(Cl)cc1)N=C(N)Nc1ccc(Cl)cc1` [Chlorohexidine], the figures for the LC retention time in series [1] and in series [2] were 6.38 min and 12.2 min, respectively.
Take `COc1nc(NC(C)C)nc(NC(C)C)n1` [Prometon]: the LC retention time was 14.1 min in series [1] and 12.2 min in series [2].
In the same order, the values of `CNC(=O)N(C)c1nnc(C(C)(C)C)s1` [Tebuthiuron] are 12.1 min and 11.9 min.
As for `CC(CCC(=O)O)C1CCC2C3C(=O)CC4CC(O)CCC4(C)C3CCC12C` (stereo unspecified) [7-Oxolithocholic acid], the LC retention time is 14.3 min in series [1] and 19.2 min in series [2].
On to `CCCc1nc2c(C)cc(-c3nc4ccccc4n3C)cc2n1Cc1ccc(-c2ccccc2C(=O)O)cc1` [Telmisartan], for which the LC retention time is 14.6 min in series [1] and 14.2 min in series [2].
With `CCCc1nc(C(C)(C)O)c(C(=O)O)n1Cc1ccc(-c2ccccc2-c2nn[nH]n2)cc1` [Olmesartan], the LC retention time was 10.6 min in series [1] and 10.9 min in series [2].
Take `O=C(OC1CCCCC1)c1ccccc1C(=O)OC1CCCCC1` [Dicyclohexylphthalat]: the results for the LC retention time in series [1] and in series [2] were 12.5 min and 14.2 min, respectively.
As for `CCC(C)C1OC2(C=CC1C)CC1CC(CC=C(C)C(OC3CC(OC)C(OC4CC(OC)C(NC)C(C)O4)C(C)O3)C(C)C=CC=C3COC4C(O)C(C)=CC(C(=O)O1)C34O)O2` (stereo unspecified) [Emamectin B1a], the LC retention time in series [1] was 18.6 min; in series [2], 17.1 min.
Take `CCC(=C(c1ccc(O)cc1)c1ccc(OCCN(C)C)cc1)c1ccccc1` [4-Hydroxytamoxifen]: the results for the LC retention time in series [1] and in series [2] were 17 min and 14.3 min, respectively.
